Laboratory results from ChEMBL document CHEMBL1201862, “PubChem BioAssay data set” (2004).
Activity calls are given as the source filed them.

Experiments:
[1] = molecular target: T1, Sentrin-specific protease 8 (Homo sapiens, UniProt Q96LD8); test: inhibition of sentrin protease 8 – biochemical, luminescence, set 2, SAR follow-up (AID 588601); assay type: functional
T1 sequence (Q96LD8 whole entry): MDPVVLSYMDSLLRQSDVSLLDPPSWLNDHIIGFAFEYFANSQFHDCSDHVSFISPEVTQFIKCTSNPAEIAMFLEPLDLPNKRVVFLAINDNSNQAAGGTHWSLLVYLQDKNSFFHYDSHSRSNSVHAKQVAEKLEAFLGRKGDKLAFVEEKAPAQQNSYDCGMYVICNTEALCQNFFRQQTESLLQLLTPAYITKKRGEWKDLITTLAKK

[2] = molecular target: T2, Sentrin-specific protease 7 (Homo sapiens, UniProt Q9BQF6); test: inhibition of human SENP7 cleavage activity – biochemical, luminescence, set 2, SAR follow-up (AID 588600); assay type: functional
T2 sequence (Q9BQF6 whole entry): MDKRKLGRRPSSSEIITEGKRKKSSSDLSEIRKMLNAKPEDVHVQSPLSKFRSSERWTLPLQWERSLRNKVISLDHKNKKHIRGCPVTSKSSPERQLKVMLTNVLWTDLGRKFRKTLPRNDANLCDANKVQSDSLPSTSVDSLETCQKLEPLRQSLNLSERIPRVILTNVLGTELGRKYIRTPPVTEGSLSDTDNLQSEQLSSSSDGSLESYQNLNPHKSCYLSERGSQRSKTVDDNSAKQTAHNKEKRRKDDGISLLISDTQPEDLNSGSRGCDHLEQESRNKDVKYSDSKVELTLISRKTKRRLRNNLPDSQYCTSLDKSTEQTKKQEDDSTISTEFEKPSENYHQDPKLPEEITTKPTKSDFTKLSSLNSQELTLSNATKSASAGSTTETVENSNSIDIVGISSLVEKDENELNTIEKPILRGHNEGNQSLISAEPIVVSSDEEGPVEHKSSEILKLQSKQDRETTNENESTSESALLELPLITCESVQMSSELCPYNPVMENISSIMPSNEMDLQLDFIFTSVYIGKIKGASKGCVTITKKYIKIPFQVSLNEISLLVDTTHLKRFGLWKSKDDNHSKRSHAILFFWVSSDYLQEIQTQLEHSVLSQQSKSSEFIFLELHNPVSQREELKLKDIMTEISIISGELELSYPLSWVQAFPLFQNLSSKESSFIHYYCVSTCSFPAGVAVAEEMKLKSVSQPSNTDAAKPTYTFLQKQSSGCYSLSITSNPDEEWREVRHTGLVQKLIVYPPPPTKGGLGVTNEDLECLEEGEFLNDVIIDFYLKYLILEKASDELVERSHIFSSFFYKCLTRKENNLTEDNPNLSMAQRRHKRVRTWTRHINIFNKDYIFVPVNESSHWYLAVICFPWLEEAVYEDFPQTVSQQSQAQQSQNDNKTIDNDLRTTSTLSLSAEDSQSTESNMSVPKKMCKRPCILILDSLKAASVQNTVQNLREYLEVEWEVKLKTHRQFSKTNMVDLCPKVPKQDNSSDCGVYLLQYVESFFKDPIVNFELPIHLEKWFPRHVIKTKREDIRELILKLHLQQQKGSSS

[3] = molecular target: T3, Caspase-3 (Homo sapiens, UniProt P42574); test: inhibition of recombinant caspase-3 activity – biochemical, luminescence, set 2, selectivity assay for SENP protease inhibitor project, SAR follow-up (AID 588599); assay type: functional
T3 sequence (P42574 whole entry): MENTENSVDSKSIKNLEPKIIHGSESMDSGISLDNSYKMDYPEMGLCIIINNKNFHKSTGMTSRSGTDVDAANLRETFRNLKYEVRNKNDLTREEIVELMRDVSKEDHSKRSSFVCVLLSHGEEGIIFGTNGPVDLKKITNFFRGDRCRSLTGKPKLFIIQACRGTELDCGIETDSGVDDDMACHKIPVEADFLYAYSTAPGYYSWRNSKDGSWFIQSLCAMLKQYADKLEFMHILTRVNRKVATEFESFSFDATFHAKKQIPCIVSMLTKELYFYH

[4] = molecular target: T4, Sentrin-specific protease 6 (Homo sapiens, UniProt Q9GZR1); test: inhibition of human SENP6 catalytic domain – biochemical, luminescence, set 2, SAR follow-up (AID 588598); assay type: functional
T4 sequence (Q9GZR1 whole entry): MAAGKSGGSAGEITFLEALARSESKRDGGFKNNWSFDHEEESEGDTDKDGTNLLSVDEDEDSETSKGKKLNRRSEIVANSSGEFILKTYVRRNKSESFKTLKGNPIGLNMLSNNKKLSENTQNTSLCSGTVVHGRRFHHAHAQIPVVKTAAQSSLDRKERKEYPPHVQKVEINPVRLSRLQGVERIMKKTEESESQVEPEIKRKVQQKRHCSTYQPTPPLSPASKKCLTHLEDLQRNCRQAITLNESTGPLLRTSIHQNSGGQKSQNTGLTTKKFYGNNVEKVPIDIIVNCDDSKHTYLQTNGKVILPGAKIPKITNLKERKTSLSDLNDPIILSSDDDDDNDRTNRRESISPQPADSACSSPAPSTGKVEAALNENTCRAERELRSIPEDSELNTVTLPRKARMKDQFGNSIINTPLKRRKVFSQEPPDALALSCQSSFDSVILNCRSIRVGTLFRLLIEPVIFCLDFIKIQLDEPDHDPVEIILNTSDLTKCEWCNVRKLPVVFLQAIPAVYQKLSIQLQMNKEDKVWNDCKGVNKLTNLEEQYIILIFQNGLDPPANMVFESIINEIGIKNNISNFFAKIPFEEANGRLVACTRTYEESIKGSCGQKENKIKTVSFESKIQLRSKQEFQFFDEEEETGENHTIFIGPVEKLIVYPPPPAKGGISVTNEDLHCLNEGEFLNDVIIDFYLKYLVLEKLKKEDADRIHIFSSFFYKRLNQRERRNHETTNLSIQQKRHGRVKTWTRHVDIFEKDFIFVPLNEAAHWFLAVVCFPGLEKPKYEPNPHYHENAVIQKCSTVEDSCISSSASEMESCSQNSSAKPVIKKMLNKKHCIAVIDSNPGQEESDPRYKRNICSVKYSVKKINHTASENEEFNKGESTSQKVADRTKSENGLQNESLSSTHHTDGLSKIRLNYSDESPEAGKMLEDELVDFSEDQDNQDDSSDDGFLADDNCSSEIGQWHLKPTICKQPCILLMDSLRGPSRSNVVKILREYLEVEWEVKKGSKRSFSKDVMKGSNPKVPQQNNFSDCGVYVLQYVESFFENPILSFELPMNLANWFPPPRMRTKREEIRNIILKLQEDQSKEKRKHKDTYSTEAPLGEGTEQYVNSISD

[5] = system: BJ; test: BJ-TERT-LT-ST fibroblast viability loss – cell-based, RAS-independent, luminescence, dose response (AID 1935); assay type: functional; conditions: Homo sapiens;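 also: BJ fibroblasts immortalized with TERT plus LT and ST oncogenes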
[6] = off-target signal loss in HeLa-CEM21 co-culture – HeLa F-luc CTL cells, cherry-picked, counter-screen for HIV-1 Env fusion inhibitor project, dose response (AID 652040); assay type: functional, cell-based;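 also: potency for signal decrease marking cytotoxic or nonspecific inhibition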
[7] = system: CHO; test: CHO cell viability loss, potency – luminescence, cytotoxicity control for TLR9-MyD88 binding inhibitor project, dose response (AID 588339); assay type: functional, cell-based, hamster; conditions: Cricetulus griseus;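 also: CHO cells stably coexpressing TLR9 and MyD88 fusions from primary screen; compound exposure lasted 48 hours before viability readout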
[8] = Luminescence Cell-Based Dose Response HTS to Identify Inhibitors of 5'UTR Stem-Loop Driven Prion Protein mRNA Translation in H4 Neuroglioblastoma Cells. [Related pubchem assays: 1827 (Project Summary), 1813 (Primary HTS)]; assay type: functional
[9] = HIV-1 AD8 envelope cell-cell fusion blockers – cherry-pick, dose response (AID 652062); assay type: functional, cell-based;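 also: luciferase signal from cell-cell fusion driven by HIV-1 clade B AD8 Env; potency is for inhibitors of fusion seen as a drop in luminescence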
[10] = HEK-293T viability loss after treatment – luminescence, T-cell screen hits, cytotoxicity control for TCR NF-kB inhibitor project, dose response (AID 489026); assay type: functional, cell-based;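 also: cells exposed to compound about 14 hours before the viability readout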
[11] = blockers of HIV-1 envelope-mediated cell-cell fusion – cherry-pick, dose response (AID 652057); assay type: functional, cell-based
[12] = system: INS1; test: INS-1E survival protection against cytokine death – cell-based, luminescence, retest, dose response (AID 449756); assay type: functional; conditions: Rattus norvegicus;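 also: cell death triggered by IL-1 beta plus TNF-alpha plus IFN-gamma mixture; protective hits raise ATP signal compared with cytokine alone wells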
[13] = THP-1 cell cytotoxicity, dose response, cytotoxicity control for non-replicating M. tuberculosis project (AID 489025); assay type: functional
[14] = molecular target: T5, Ubiquitin-conjugating enzyme E2 N (Homo sapiens, UniProt P61088); assay type: functional
T5 sequence (P61088 whole entry): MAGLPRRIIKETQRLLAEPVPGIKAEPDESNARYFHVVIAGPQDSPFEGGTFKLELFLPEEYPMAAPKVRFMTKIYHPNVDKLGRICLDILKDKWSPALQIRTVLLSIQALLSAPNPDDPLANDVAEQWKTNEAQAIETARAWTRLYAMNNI

[15] = system: BJ; test: growth inhibition of engineered Ras-driven BJ cells – cell-based, alamar blue fluorescence, cherrypicked samples, dose response (AID 2631); assay type: functional; conditions: Homo sapiens;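 also: confirmatory dose-response assay in RAS-dependent BJ fibroblasts engineered with TERT, LT and ST, with cytotoxicity read by fluorescence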
[16] = DRD fibroblast viability loss – cell-based, non-viral oncogenic, luminescence, dose response (AID 1934); assay type: functional; conditions: Homo sapiens
[17] = luciferase reporter signal suppression in cells – H4 neuroglioma cells, luminescence, dose response (AID 1990); assay type: functional, cell-based
[18] = alpha-synuclein stem-loop luciferase translation blockers – H4 neuroglioma cells, luminescence, confirmation (AID 1988); assay type: functional, cell-based
[19] = viability loss in CEM21 cells – cell-based, CellTiter-Glo luminescence, cherry-picked, cytotoxicity control for viral fusion inhibitor project, dose response (AID 652042); assay type: functional;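 also: potency for signal decrease meaning cytotoxicity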
[20] = molecular target: T6, Bcl-2-related protein A1 (Mus musculus, UniProt Q07440); assay type: functional;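 also: confirmatory dose–response counterscreen on Bfl-1, used to check hits from a UBC13 polyubiquitin inhibitor campaign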
T6 sequence (Q07440 whole entry): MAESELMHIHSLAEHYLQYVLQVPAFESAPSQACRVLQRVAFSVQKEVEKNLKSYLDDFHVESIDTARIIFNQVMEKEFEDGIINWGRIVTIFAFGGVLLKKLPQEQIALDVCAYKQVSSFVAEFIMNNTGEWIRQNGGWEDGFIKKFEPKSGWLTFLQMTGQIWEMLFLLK

[21] = molecular target: T5, Ubiquitin-conjugating enzyme E2 N; assay type: functional; remark: listed apart in the source
[22] = blockers of HIV-1 ZM109 envelope-driven cell-cell fusion – HeLa effector, CEM target cells, luciferase, cherry-pick, dose response (AID 652058); assay type: functional, cell-based;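 also: luciferase signal from HIV-1 Env mediated cell-cell fusion of effector and target cells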
[23] = Vero E6 cell cytotoxicity, dose response, cytotoxicity control for non-replicating M. tuberculosis project, secondary assay (AID 492998); assay type: functional, VeroE6; conditions: Vero C1008
[24] = cells; assay type: functional
[25] = molecular target: Beta Lactamase (Pseudomonas aeruginosa, UniProt Q932Y6); test: BLA reporter interference, concentration series – BLA reporter cells, FRET fluorescence, artefact control for TLR9-MyD88 binding inhibitor project, dose response (AID 588341); assay type: cell-based;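 also: cell based assay in CHO-K1 cells stably expressing beta-lactamase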
Chain of Beta Lactamase (Q932Y6 whole entry): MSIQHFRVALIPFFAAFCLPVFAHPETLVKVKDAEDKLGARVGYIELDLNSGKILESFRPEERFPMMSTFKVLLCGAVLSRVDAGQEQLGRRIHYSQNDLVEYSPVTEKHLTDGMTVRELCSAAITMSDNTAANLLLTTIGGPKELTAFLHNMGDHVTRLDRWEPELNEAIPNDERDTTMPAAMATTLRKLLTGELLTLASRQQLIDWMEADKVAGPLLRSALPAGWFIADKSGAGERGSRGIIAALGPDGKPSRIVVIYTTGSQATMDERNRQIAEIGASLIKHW

[26] = molecular target: T7, Mitochondrial peptide methionine sulfoxide reductase (Bos taurus, UniProt P54149); assay type: functional;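 also: absorbance read-out, biochemical high-throughput dose-response screen for MsrA inhibitors, confirmatory; recombinant bovine MsrA coupled to E. coli TrxB with NADPH and selenocystamine; potency is for inhibitors of MsrA activity on DMSO substrate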
T7 sequence (P54149 whole entry): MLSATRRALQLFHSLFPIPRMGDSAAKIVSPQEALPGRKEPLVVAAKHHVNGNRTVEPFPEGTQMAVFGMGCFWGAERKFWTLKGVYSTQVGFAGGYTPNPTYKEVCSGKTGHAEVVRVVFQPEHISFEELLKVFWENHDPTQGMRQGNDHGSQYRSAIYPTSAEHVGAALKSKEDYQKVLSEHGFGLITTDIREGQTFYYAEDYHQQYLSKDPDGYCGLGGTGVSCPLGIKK

[27] = molecular target: Aryl hydrocarbon receptor (Homo sapiens, UniProt P35869); test: Luminescence-based cell-based high throughput dose response assay for activators of the Aryl Hydrocarbon Receptor (AHR). [Related pubchem assays: 2796 (Primary screen (AHR activators in singlicate)), 2845 (Confirmation screen (AHR activators in triplicate)), 434939 (Counterscreen (PXR activators in triplicate)), 2804 (Summary (AHR activators))]; assay type: ADME
Chain of Aryl hydrocarbon receptor (P35869 whole entry): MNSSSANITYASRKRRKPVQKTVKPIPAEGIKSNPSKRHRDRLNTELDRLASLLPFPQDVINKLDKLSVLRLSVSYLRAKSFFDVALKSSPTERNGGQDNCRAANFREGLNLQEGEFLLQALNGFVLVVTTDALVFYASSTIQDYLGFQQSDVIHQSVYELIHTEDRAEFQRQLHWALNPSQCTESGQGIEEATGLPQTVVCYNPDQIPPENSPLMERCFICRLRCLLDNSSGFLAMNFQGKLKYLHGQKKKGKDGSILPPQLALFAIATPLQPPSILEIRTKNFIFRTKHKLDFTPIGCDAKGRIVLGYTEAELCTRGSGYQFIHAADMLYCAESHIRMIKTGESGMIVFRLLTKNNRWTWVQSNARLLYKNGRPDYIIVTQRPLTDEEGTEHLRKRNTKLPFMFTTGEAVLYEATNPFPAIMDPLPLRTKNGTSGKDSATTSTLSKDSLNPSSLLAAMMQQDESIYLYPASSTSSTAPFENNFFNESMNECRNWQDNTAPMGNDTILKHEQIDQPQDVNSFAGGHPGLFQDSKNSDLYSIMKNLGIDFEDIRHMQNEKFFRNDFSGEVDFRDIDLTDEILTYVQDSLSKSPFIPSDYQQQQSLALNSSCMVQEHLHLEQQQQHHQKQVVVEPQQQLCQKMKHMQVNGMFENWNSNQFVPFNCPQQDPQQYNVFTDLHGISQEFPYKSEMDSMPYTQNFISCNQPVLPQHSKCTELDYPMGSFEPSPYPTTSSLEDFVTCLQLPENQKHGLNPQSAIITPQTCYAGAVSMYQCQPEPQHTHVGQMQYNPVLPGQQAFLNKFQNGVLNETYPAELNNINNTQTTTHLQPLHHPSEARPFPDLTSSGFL

[28] = HepG2 cell cytotoxicity, dose response, cytotoxicity control for non-replicating M. tuberculosis project (AID 489018); assay type: functional; conditions: Mycobacterium tuberculosis
[29] = system: BJ; test: BJ-TERT fibroblast viability loss – cell-based, RAS-independent, luminescence, dose response (AID 1933); assay type: functional; conditions: Homo sapiens
[30] = system: BJ; test: cells; assay type: functional, cell-based; conditions: Homo sapiens

In the case of `COc1ccc2nc(NC(=O)c3ccccc3NS(=O)(=O)c3ccc4c(c3)OCCO4)sc2c1`, the IC50 [1] is reported as > 99 µM (inactive), the IC50 [2] is reported as > 99 µM (inactive) and the IC50 [3] is reported as > 99 µM (inactive). For the same molecule, the IC50 [4] was > 99 µM (inactive).

In the case of `COc1ccc2nc(C)cc(N/N=C/c3ccc(F)cc3)c2c1`, the EC50 [5] is reported as 2.66 µM (inconclusive), the AC50 [6] is reported as 6.09 µM (active) and the IC50 [7] is reported as 6.2 µM (active). For the same molecule, the EC50 [8] was > 120 µM (not active), the AC50 [9] was 14.7 µM (active) and the IC50 [10] was > 80 µM (inactive). For the same molecule, the AC50 [11] was 8.26 µM (active), the AC50 [12] was 6.46 µM (active) and the CC50 [13] was 1.66 µM (active). The IC50 [14] was 11.8 µM (active), the EC50 [15] was 0.317 µM (active) and the EC50 [16] was 4.92 µM (active). The EC50 [17] was 8.44 µM (active), the EC50 [18] was 9.29 µM (active) and the AC50 [19] was 2.65 µM (active). For the same molecule, the IC50 [20] was 17 µM (active), the IC50 [21] was 10.1 µM (active) and the AC50 [22] was 8.14 µM (active). For the same molecule, the CC50 [23] was 0.57 µM (active), the IC50 [24] was 3.12 µM (active) and the IC50 [25] was 2.13 µM (active). For the same molecule, the IC50 [26] was 12.8 µM (inactive), the EC50 [27] was > 0.377 µM (active) and the CC50 [28] was 15.2 µM (active). For the same molecule, the EC50 [29] was 1.24 µM (inconclusive) and the EC50 [30] was 5.09 µM (inconclusive).
